Data reported in patent publication US10626112B2, “Heterocyclic sulfonamide derivative and medicine comprising same” (EA PHARMA CO., LTD., priority 2014, dated 2020).

Target: human TRPA1 (Homo sapiens (Human), UniProt O75762)
Test: Measurement of TRPA1 antagonist activity (2): as (1), different lot of human TRPA1 expression plasmid
Type: cell-based
Conditions: 293T cells transfected with human TRPA1, allylisothiocyanate 20 μM stimulation, calcium fluorescence, read-out: hTRPA1 IC50
Procedure: Human embryonic kidney-derived 293T cells were cultured in Dulbecco's Modified Eagle Medium containing 10% fetal bovine serum, 10 unit penicillin, and 10 μg streptomycin, plated on a petri dish having a diameter of 10 cm at 3×10^6 cells, and cultured for 24 hr in a CO2 incubator. A reduced serum medium (manufactured by Invitrogen, trade name: OPTI-MEM, 600 μL), a gene transfer reagent (manufactured by Mirus Bio, trade name: Mirus TransIT-293, 18 μL), and human TRPA1 expression plasmid (6 μg) were mixed, the total amount of the mixture was added to the cells on the petri dish to allow for gene transfer. The cells were recovered about for 8 hr later, plated on a poly-D-lysine coated 384 well black/clear bottom plate at 12,000 cells/well, and cultured overnight.
Measurement of Intracellular Calcium Increase
The 384 well plate was recovered, and the medium was removed. A calcium-bonded fluorescent indicator (manufactured by Molecular Device, trade name: Calcium4 Assay Kit, 38 μL) dissolved in assay buffer (1×HBSS, 20 mM HEPES, pH 7.2) was added, and the cells were stained in a CO2 incubator for 1 hr. The cells were taken out at room temperature, stood for not less than 15 min, a test substance (10 μL) was added by a platereader FDSS7000 (Hamamatsu Photonics K.K.) equipped with a 384ch dispenser. After 10 min, allylisothiocyanate (12 μL) was further added at a final concentration of 20 μM, and changes in the relative fluorescence intensity after addition of allylisothiocyanate were measured for 5 min.
Test Substance Preparation
The test substance was dissolved in dimethyl sulfoxide and serially diluted with an assay buffer containing 0.1% bovine serum albumin (1×HBSS, 20 mM HEPES, pH 7.2) to a 4.8-fold concentration of the evaluation concentration. Allylisothiocyanate, which is a known TRPA1 activator, was dissolved in dimethyl sulfoxide to 100 mM, and further diluted 5-fold (100 μM) of the final concentration, like the test substance.
Calculation of Antagonist Activity
Under the test substance-free conditions, the maximum variation range of the fluorescence intensity before and after allylisothiocyanate stimulation was defined to be 100% activity rate, and the variation range before and after buffer stimulation was defined as 0% activity rate. The activity rate on addition of the test substance was determined, and the numerical value obtained by subtracting the activity rate from 100 was defined to be an inhibitory rate. IC50, which is the concentration of the test substance necessary for reaching the 50% inhibitory rate, was calculated from the sigmoid approximate curve by a spreadsheet software Excel-Fit.
Measurement of TRPA1 Antagonist Activity (2)
By a method similar to that in Experimental Example 1-1 except that the lot of human […] expression plasmid is different, the TRPA1 antagonist activity of the test substance was measured.

Chain of human TRPA1 (O75762 whole entry): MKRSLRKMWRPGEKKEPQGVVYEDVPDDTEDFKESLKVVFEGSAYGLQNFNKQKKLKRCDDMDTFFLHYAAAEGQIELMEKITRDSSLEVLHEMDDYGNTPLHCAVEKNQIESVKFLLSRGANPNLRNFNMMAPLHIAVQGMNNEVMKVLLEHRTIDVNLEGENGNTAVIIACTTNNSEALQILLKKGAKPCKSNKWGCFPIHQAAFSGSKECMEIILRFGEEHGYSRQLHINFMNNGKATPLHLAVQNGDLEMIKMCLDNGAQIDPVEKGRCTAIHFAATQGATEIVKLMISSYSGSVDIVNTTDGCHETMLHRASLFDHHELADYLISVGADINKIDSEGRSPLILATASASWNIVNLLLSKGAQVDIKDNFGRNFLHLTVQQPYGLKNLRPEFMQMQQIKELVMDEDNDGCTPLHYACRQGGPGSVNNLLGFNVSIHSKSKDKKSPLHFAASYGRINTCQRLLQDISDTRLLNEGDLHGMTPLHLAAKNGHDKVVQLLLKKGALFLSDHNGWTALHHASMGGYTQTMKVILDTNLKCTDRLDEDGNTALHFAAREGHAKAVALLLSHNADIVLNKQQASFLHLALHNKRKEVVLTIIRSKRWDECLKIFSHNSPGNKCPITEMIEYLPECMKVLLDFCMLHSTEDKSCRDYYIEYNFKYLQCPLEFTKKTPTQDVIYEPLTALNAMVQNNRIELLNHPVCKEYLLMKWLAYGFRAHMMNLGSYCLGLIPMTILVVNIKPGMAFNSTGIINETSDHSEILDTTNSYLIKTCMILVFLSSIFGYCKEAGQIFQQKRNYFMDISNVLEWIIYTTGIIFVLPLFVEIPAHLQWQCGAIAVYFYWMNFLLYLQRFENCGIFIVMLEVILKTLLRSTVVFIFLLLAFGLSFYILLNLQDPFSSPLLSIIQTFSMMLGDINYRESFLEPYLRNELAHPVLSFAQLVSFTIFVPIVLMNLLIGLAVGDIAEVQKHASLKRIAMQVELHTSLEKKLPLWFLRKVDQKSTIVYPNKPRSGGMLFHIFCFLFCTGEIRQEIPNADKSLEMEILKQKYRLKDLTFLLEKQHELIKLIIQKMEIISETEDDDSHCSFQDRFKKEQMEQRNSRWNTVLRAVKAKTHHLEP

| IC50 [nM] | Compound |
| --- | --- |
| 13 | CC(C)N(CC(=O)NCc1cc(-c2ccc(C(F)(F)F)cc2)ncn1)S(=O)(=O)c1cc2cnccc2o1 [Example 368, 2-[furo[3,2-c]pyridin-2-ylsulfonyl(isopropyl)amino]-N-[[6-[4-(trifluoromethyl)-phenyl]pyrimidin-4-yl]methyl]acetamide] |
| 44 | C[C@H](NS(=O)(=O)c1cc2cnccc2o1)C(=O)NCc1cc(-c2ccc(C(F)(F)F)cc2)nc(N(C)C)n1 [Example 369, (2S)-N-[[2-(dimethylamino)-6-[4-(trifluoromethyl)-phenyl]pyrimidin-4-yl]methyl]-2-(furo[3,2-c]pyridin-2-ylsulfonylamino)propanamide] |
| 73 | C[C@H](NS(=O)(=O)c1cc2cc(F)ccc2o1)C(=O)NCc1cc(-c2ccc(C(F)(F)F)cc2)nc(N(C)C)n1 [Example 370, (2S)-N-[[2-(dimethylamino)-6-[4-(trifluoromethyl)-phenyl]pyrimidin-4-yl]methyl]-2-[(5-fluorobenzofuran-2-yl)sulfonylamino]propanamide] |
| 10 | CN(C)c1nc(CNC(=O)[C@@H]2CCCN2S(=O)(=O)c2cc3ccccc3o2)cc(-c2ccc(C(F)(F)F)nc2)n1 [Example 371, (2S)-1-(benzofuran-2-ylsulfonyl)-N-[[2-(dimethylamino)-6-[6-(trifluoromethyl)-3-pyridyl]pyrimidin-4-yl]methyl]pyrrolidine-2-carboxamide] |
| 27 | C[C@H](NS(=O)(=O)c1cc2cc(F)ccc2o1)C(=O)NCc1cc(-c2ccc(C(F)(F)F)nc2)nc(N(C)C)n1 [Example 372, (2S)-N-[[2-(dimethylamino)-6-[6-(trifluoromethyl)-3-pyridyl]pyrimidin-4-yl]methyl]-2-[(5-fluorobenzofuran-2-yl)sulfonylamino]propanamide] |
| 79 | C[C@H](NS(=O)(=O)c1cc2cnccc2o1)C(=O)NCc1ccc(O)c(-c2ccc(C(F)(F)F)cn2)c1 [Example 373, (2S)-2-(furo[3,2-c]pyridin-2-ylsulfonylamino)-N-[[4-hydroxy-3-[5-(trifluoromethyl)-2-pyridyl]-phenyl]methyl]propanamide] |
| 15 | CC(C)N(CC(=O)NCc1ccc(O)c(-c2ccc(C(F)(F)F)cn2)c1)S(=O)(=O)c1cc2cnccc2o1 [Example 374, 2-[furo[3,2-c]pyridin-2-ylsulfonyl(isopropyl)amino]-N-[[4-hydroxy-3-[5-(trifluoromethyl)-2-pyridyl]-phenyl]methyl]acetamide] |
| 13 | CN(C)c1nc(CNC(=O)[C@@H]2CCCN2S(=O)(=O)c2cc3cnccc3o2)cc(-c2ccc(C(F)(F)F)cc2)n1 [Example 375, (2S)-N-[[2-(dimethylamino)-6-[4-(trifluoromethyl)phenyl]-pyrimidin-4-yl]methyl]-1-furo[3,2-c]pyridin-2-ylsulfonyl-pyrrolidine-2-carboxamide] |
| 21 | CN(C)c1nc(CNC(=O)[C@@H]2CCCN2S(=O)(=O)c2cc3ccccc3o2)cc(-c2ccc(C(F)(F)F)cc2O)n1 [Example 376, (2S)-1-(benzofuran-2-ylsulfonyl)-N-[[2-(dimethylamino)-6-[2-hydroxy-4-(trifluoromethyl)phenyl]-pyrimidin-4-yl]methyl]pyrrolidine-2-carboxamide] |
| 110 | C[C@H](NS(=O)(=O)c1cc2cc(F)ccc2o1)C(=O)NCc1cc(-c2ccc(C(F)(F)F)cc2O)nc(N(C)C)n1 [Example 377, (2S)-N-[[2-(dimethylamino)-6-[2-hydroxy-4-(trifluoromethyl)phenyl]-pyrimidin-4-yl]methyl]-2-[(5-fluorobenzofuran-2-yl)sulfonylamino]propanamide] |
| 5.2 | CN(C)c1nc(CNC(=O)[C@@H]2CCCN2S(=O)(=O)c2cc3cc(F)ccc3o2)cc(-c2ccc(C(F)(F)F)cc2)n1 [Example 378, (2S)-N-[[2-(dimethylamino)-6-[4-(trifluoromethyl)phenyl]-pyrimidin-4-yl]methyl]-1-(5-fluorobenzofuran-2-yl)sulfonyl-pyrrolidine-2-carboxamide] |
| 19 | CN(C)c1nc(CNC(=O)[C@@H]2CCN2S(=O)(=O)c2cc3cc(F)ccc3o2)cc(-c2ccc(C(F)(F)F)cc2)n1 [Example 379, (2S)-N-[[2-(dimethylamino)-6-[4-(trifluoromethyl)phenyl]-pyrimidin-4-yl]methyl]-1-(5-fluorobenzofuran-2-yl)sulfonyl-azetidine-2-carboxamide] |
| 3.1 | O=C(NCc1ccc(O)c(-c2ccc(C(F)(F)F)nn2)c1)[C@@H]1CCCN1S(=O)(=O)c1cc2ccccc2o1 [Example 380, (2S)-1-(benzofuran-2-ylsulfonyl)-N-[[4-hydroxy-3-[6-(trifluoromethyl)pyridazin-3-yl]phenyl]methyl]pyrrolidine-2-carboxamide] |
| 20 | C[C@H](NS(=O)(=O)c1cc2cc(F)ccc2o1)C(=O)NCc1ccc(O)c(-c2ccc(C(F)(F)F)nn2)c1 [Example 381] |
| 27 | Nc1nc(CNC(=O)[C@@H]2CCCN2S(=O)(=O)c2cc3cc(F)ccc3o2)cc(-c2ccc(C(F)(F)F)cc2)n1 [Example 382, (2S)-N-[[2-amino-6-[4-(trifluoromethyl)phenyl]-pyrimidin-4-yl]methyl]-1-(5-fluorobenzofuran-2-yl)sulfonyl-pyrrolidine-2-carboxamide] |
| 9.7 | O=C(NCc1ccnc(-c2ccc(C(F)(F)F)cc2O)c1)[C@@H]1CCN1S(=O)(=O)c1cc2cc(F)ccc2o1 [Example 383, (2S)-1-(5-fluorobenzofuran-2-yl)sulfonyl-N-[[2-[2-hydroxy-4-(trifluoromethyl)phenyl]-4-pyridyl]methyl]azetidine-2-carboxamide] |
| 13 | CN(C)c1nc(CNC(=O)[C@@H]2CCN2S(=O)(=O)c2cc3cc(F)ccc3o2)cc(-c2ccc(C(F)(F)F)nc2)n1 [Example 384, (2S)-N-[[2-(dimethylamino)-6-[6-(trifluoromethyl)-3-pyridyl]pyrimidin-4-yl]methyl]-1-(5-fluorobenzofuran-2-yl)sulfonyl-azetidine-2-carboxamide] |
| 13 | O=C(NCc1cc(-c2ccc(C(F)(F)F)cn2)ccn1)[C@@H]1CCN1S(=O)(=O)c1cc2ccccc2o1 [Example 385, (2S)-1-(benzofuran-2-ylsulfonyl)-N-[[4-[5-(trifluoromethyl)-2-pyridyl]-2-pyridyl]methyl]azetidine-2-carboxamide] |
| 6.6 | O=C(NCc1cc(-c2ccc(C(F)(F)F)cc2)ncn1)[C@@H]1CCN1S(=O)(=O)c1cc2ccccc2o1 [Example 386, (2S)-1-(benzofuran-2-ylsulfonyl)-N-[[6-[4-(trifluoromethyl)phenyl]-pyrimidin-4-yl]methyl]azetidine-2-carboxamide] |
| 55 | O=C(NCc1cc(-c2cnc(C(F)(F)F)nc2)ncn1)[C@@H]1CCN1S(=O)(=O)c1cc2cc(F)ccc2o1 [Example 387, (2S)-1-(5-fluorobenzofuran-2-yl)sulfonyl-N-[[6-[2-(trifluoromethyl)pyrimidin-5-yl]pyrimidin-4-yl]methyl]azetidine-2-carboxamide] |
| 2.7 | O=C(NCc1cc(-c2ccc(C(F)(F)F)nc2)ncn1)[C@@H]1CCN1S(=O)(=O)c1cc2cc(F)ccc2o1 [Example 388, (2S)-1-(5-fluorobenzofuran-2-yl)sulfonyl-N-[[6-[6-(trifluoromethyl)-3-pyridyl]pyrimidin-4-yl]methyl]azetidine-2-carboxamide] |
| 11 | O=C(NCc1cc(-c2cnc(C(F)(F)F)nc2)ccn1)[C@@H]1CCN1S(=O)(=O)c1cc2cc(F)ccc2o1 [Example 389, (2S)-1-(5-fluorobenzofuran-2-yl)sulfonyl-N-[[4-[2-(trifluoromethyl)pyrimidin-5-yl]-2-pyridyl]methyl]azetidine-2-carboxamide] |
| 9.3 | O=C(NCc1ccc(O)c(-c2cnc(C(F)(F)F)cn2)c1)[C@@H]1CCN1S(=O)(=O)c1cc2cc(F)ccc2o1 [Example 390, (2S)-1-(5-fluorobenzofuran-2-yl)sulfonyl-N-[[4-hydroxy-3-[5-(trifluoromethyl)pyrazin-2-yl]phenyl]methyl]azetidine-2-carboxamide] |
| 26 | O=C(NCc1cc(-c2ccc(C(F)(F)F)cn2)cnn1)[C@@H]1CCN1S(=O)(=O)c1cc2cc(F)ccc2o1 [Example 391, (2S)-1-(5-fluorobenzofuran-2-yl)sulfonyl-N-[[5-[5-(trifluoromethyl)-2-pyridyl]pyridazin-3-yl]methyl]azetidine-2-carboxamide] |
